Experimental data as given in patent EP2813566A1, “Method for incorporating a compound into live yeast cells” (priority 2013, dated 2014).
Counter-ions that a name gives are not always drawn.

What was measured:
Type in all cases: cell-based
[1] = tested on: Streptococcus pyogenes Rosenbach 1884AL, ATCC12344; test: Kirby-Bauer Disk Diffusion method, Streptococcus pyogenes reference strain; settings: for inhibition zone diameter: Saccharomyces Lalvin
Text: Streptococcus pyogenes Rosenbach 1884AL, ATCC12344 comes from the BCCM-LMG Bacteria collection, accession number 21599, laboratorium voor microbiologie, UGent, B-9000 Gent. The culture medium is Brain Heart Infusion Broth of typical composition (g/litre) (brain extract, heart extract and peptones 27.5; D+glucose 2.0; sodium chloride 5.0; di-sodium hydrogen phosphate 2.5; agar-agar (not present in the broth) 15.0. Brain Heart Infusion Agar was purchased from Oxoid CM 0375. The medium may be enriched with a sterilized horse serum from defibrinated horse blood for 20 % of global volume. Brain Heart Infusion SM 225 from Oxoid may also be employed for streptococcus culture broth.
(§1) For experimental purposes, the antimicrobial activities of the antibiotic standard solution of known concentration, of the yeasts within their incorporation broth after the methods steps, of the supernatants collected by centrifugation and of the pellets of the centrifuged yeasts, after each washing cycle, were compared, using a Kirby-Bauer Disk Diffusion method.
(§2) The selected reference strains were Streptococcus pyogenes Rosenbach1884AL (BCCM-LMG 21599) or Lactobacillus paracasei subsp. paracasei Collins, Phillips and Zanoni 1989 VP (BCCM-LMG 9192).
(§3) The streptococci or lactobacilli reference strains populations were counted in a Neubauer cell, and then diluted in PBS so as to obtain 2 million germs in one ml buffer: 0.5 ml of the diluted culture medium were then streaked on the agar plates. Another method for obtaining the suitable density of reference bacteria is the culture medium dilution in PBS so as to obtain with a filter photometer, an optical density of 0.04 at 620nm.
(§4) Sterile filter or blotter paper disks were laid down on the gelose, humidified with PBS 3 µl. 6 to 12µl of each above-mentioned fraction were then sucked into the blotting paper disk.

[2] = tested on: Lactobacillus paracasei subsp. paracasei; test: Kirby-Bauer Disk Diffusion method, Lactobacillus paracasei reference strain
Text: Lactobacillus paracasei subsp. paracasei Collins, Phillips and Zanoni 1989 VP, type strain of Lactobacillus casei subsp. pseudoplantarum, came from the BCCM-LMG Bacteria collection, accession number 9192, ATCC 25598, depositor NCIMB. Lactobacillus kefiri Kandler and Kunath 1983VL, BCCM-LMG Bacteria collection, accession number 9480, ATCC 35411. A modified Man, Rogosa, Sharpe medium has been used for the Lactobacillus kefiri and for Lactobacillus paracasei culture, as a reference strain for antibiotic activity of the yeast strains: the composition (g/liter) peptone 10.0; meat extract 8.0; yeast extract 4.0; glucose 20.0; orthophosphate 2.0; magnesium sulphate heptahydrate 0.2; manganese sulphate tetrahydrate 0.05; ferrous sulphate 0.01; agar 10.0 The pH is adjusted to 6.2 with acetic acid.
as §1, §2, §3, §4

[3] = tested on: Streptococcus pyogenes or Lactobacillus paracasei; test: Kirby-Bauer Disk Diffusion method, reference strain not stated for the experiment; settings: Saccharomyces bayanus Lalvin, red grape juice + Potato Plus Juice, clarithromycin 2mg/ml, pH 4.0
Text: as §1, §2, §3, §4

[4] = tested on: Escherichia coli (Migula1895) Castellani and Chalmers 1919AL, ATCC10536; test: Kirby-Bauer Disk Diffusion method, Escherichia coli reference strain; settings: for inhibition zone: 25-41-52-41°C
Text: The culture medium is Nutrient agar (Oxoid CM3) in g/litre Lab-Lemco beef extract 1; Yeast extract 2; Peptone 5; NaCl 5; Agar 15; pH7.4
as §1, §4

CC[C@H]1OC(=O)[C@H](C)[C@@H](O[C@H]2C[C@@](C)(OC)[C@@H](O)[C@H](C)O2)[C@H](C)[C@@H](O[C@@H]2O[C@H](C)C[C@H](N(C)C)[C@H]2O)[C@](C)(O)C[C@@H](C)C(=O)[C@H](C)[C@@H](O)[C@]1(C)O [Erythromycin standard (2mg/ml), Erythromycin]
inhibition zone ([1]; Saccharomyces bayanus Lalvin, red grape juice + alkaline hydrolyzed spelt wheat flour + parsley juice, erythromycin 1mg/ml, pH 7.0, 25-41-52-41-35-25°C, violet photoinduction, BHI agar with defibrinated horse blood): 48 mm

CC[C@H]1OC(=O)[C@H](C)[C@@H](O[C@H]2C[C@@](C)(OC)[C@@H](O)[C@H](C)O2)[C@H](C)[C@@H](O[C@@H]2O[C@H](C)C[C@H](N(C)C)[C@H]2O)[C@](C)(OC)C[C@@H](C)C(=O)[C@H](C)[C@@H](O)[C@]1(C)O [Clarithromycin standard (2mg/ml), clarithromycin]
inhibition zone diameter ([2]; Saccharomyces Lalvin, YPD broth pH 6.5, clarithromycin 2mg/ml, experiment with lethal heat stress 25-34-55-34-25°C): 40.5 mm
inhibition zone ([2]; Saccharomyces Lalvin, clarithromycin 2mg/ml, pH 4.0, 25-41-43-35-25°C): 41 mm
inhibition zone ([2]; Saccharomyces Lalvin, clarithromycin 2mg/ml, pH 4.0, 25-41-45-35-25°C): 41 mm
inhibition zone ([2]; Saccharomyces Lalvin, clarithromycin 2mg/ml, pH 4.0, 25-41-47-35-25°C): 38.5 mm
inhibition zone ([2]; Saccharomyces Lalvin, clarithromycin 2mg/ml, pH 4.0, 25-41-49-35-25°C): 40 mm
inhibition zone ([2]; Saccharomyces Lalvin, clarithromycin 2mg/ml, pH 4.0, 25-41-51-35-25°C): 40 mm
inhibition zone ([2]; Saccharomyces Lalvin, clarithromycin 2mg/ml, pH 4.0, 25-41-53-35-25°C): 40 mm
inhibition zone ([2]; Saccharomyces Lalvin, clarithromycin 2mg/ml, pH 4.0, 25-41-54-35-25°C): 40 mm
inhibition zone ([2]; Saccharomyces Lalvin, red grape juice + Potato Plus Juice, clarithromycin 2mg/ml, pH 4.0, 25-41-41-35-25°C (upper plate 41°C)): 41 mm
inhibition zone diameter ([2]; Saccharomyces Lalvin, red grape juice + raw potatoes juice with selenium, clarithromycin 2mg/ml, pH 4.0, 25-41-52-41-35-25°C, 8µl on disk): 38 mm
inhibition zone ([2]; Saccharomyces bayanus Lalvin QA23, red grape juice + raw potatoes juice with selenium, clarithromycin 2mg/ml, pH 4.0, 25-41-52-41-35°C, skullcap extract after 35°C plate): 42 mm
inhibition zone ([2]; Saccharomyces bayanus Lalvin, clarithromycin 2mg/ml, pH 6.5, after sequence 25-41-52-41-35-25°C (last thermal plate), 8µl): 38.5 mm
inhibition zone ([2]; Saccharomyces bayanus Lalvin, medium a: red grape juice + Potato Plus Juice, clarithromycin 2mg/ml, pH 4.0, 25-41-52-41-35-25°C, violet photoinduction): 39.5 mm
inhibition zone ([2]; Saccharomyces bayanus Lalvin, medium c: red grape juice + Potato Plus Juice + spelt wheat hydrolysate, clarithromycin 2mg/ml, pH 6.5, 25-41-52-41-35-25°C, violet photoinduction): 36.5 mm
inhibition zone in diameter ([1]; Kluyveromyces marxianus + Lactobacillus kefiri, red grape juice + sweet potatoes juice with selenium, clarithromycin, pH 4.0, 25-41-52-41°C, violet photoinduction): 47 mm
inhibition zone diameter ([1]; YPD broth pH 6.5, clarithromycin 2mg/ml, simplified sequence 25-37-25°C (mild heat stress)): 38 mm
inhibition zone diameter ([1]; red grape juice + raw potatoes juice with selenium, clarithromycin 2mg/ml, pH 4.0, thermal plates 25-41-52-41-35-25°C, 8µl on disk): 37 mm
inhibition zone ([3]; after sequence 25-35-52-41°C (last thermal plate)): 42 mm
inhibition zone ([3]; after sequence 25-39-52-41°C (last thermal plate)): 42 mm

NCC[C@H](O)C(=O)N[C@@H]1C[C@H](N)[C@@H](O[C@H]2O[C@H](CN)[C@@H](O)[C@H](O)[C@H]2O)[C@H](O)[C@H]1O[C@H]1O[C@H](CO)[C@@H](O)[C@H](N)[C@H]1O [Amikacine sulfate standard in TBS, Amikacine sulphate]
inhibition zone ([4]; Kluyveromyces marxianus, red grape juice + potatoes juice with selenium, Amukin 1mg/ml, pH 4.0, violet photoinduction): 26.5 mm

O=C1CN(/N=C/c2ccc([N+](=O)[O-])o2)C(=O)N1 [Standard nitrofurantoin in DMSO, 1mg/ml, Nitrofurantoin]
Inhibition zone diameters ([4]; 20µl deposits, Saccharomyces cerevisiae bayanus Lalvin QA23, nitrofurantoin, pH around 7.0, 90minutes 41°C, 60minutes 52°C): 32 mm

CS(=O)(=O)c1ccc([C@@H](O)[C@@H](CF)NC(=O)C(Cl)Cl)cc1 [Florfenicol]
inhibition zone ([4]; Saccharomyces bayanus Lalvin and Saccharomyces cerevisiae combined, red grape juice medium, florfénicol 2mg/ml, pH 7.5, 20µl deposit): 39 mm
